Test [1] has as its target T1, GLS1 (purified recombinant human GAC) (Homo sapiens, UniProt O94925).
T1 sequence (O94925 55-598 isoform O94925-3 limits assumed): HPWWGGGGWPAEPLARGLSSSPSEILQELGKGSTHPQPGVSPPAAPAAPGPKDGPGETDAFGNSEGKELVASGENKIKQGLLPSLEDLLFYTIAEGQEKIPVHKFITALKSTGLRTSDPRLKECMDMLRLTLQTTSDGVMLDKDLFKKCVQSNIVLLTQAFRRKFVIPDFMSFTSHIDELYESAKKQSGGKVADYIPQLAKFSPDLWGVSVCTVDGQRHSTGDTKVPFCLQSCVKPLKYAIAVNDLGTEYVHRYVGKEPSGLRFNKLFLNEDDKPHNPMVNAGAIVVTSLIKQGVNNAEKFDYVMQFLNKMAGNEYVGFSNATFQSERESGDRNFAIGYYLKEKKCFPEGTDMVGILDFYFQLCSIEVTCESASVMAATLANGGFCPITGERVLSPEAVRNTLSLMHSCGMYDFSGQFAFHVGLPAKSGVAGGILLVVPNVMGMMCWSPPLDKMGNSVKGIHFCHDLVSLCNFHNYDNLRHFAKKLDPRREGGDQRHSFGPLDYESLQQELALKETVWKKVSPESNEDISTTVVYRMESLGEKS
Briefly: GLS1 enzymatic activity assay (dual-coupled, Amplex UltraRed/resorufin). It is filed as biochemical. In a few lines: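 Recombinant human GAC (2 nM) preincubated with 50 mM potassium phosphate, then inhibitor (10 min each, RT); 1 mM glutamine, pH 7.4 Hepes buffer, 1% DMSO. Glutamate coupled via glutamate oxidase/HRP to resorufin (Ex 530/Em 590), kinetic or 20-min endpoint; IC50 by four-parameter logistic fit.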

The subject of another test is A549 cells. Briefly: A549 proliferation (viability) assay, Cell Titer Fluor, 72 hours. Format: cell-based. Particulars: Homo sapiens. The procedure, abridged: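 1000 A549 cells/well, RPMI 1640/10% dialyzed FBS, 24 h attach; compound 72 h, 0.5% DMSO, 37 °C/5% CO2; Cell Titer Fluor fluorescence; EC50 via 4-parameter logistic.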

For `O=C(CC1CCCCC1)Nc1ccn(CCCCc2nnc(C(=O)NCc3cccc(OC(F)(F)F)c3)s2)c(=O)c1` [Example 440, 5-{4-[4-(2-cyclohexylacetamido)-2-oxo-1,2-dihydropyridin-1-yl]butyl}-N-{[3-(trifluoromethoxy)phenyl]methyl]-1,3,4-thiadiazole-2-carboxamide], the IC50 (commonly the concentration that inhibits the measured activity by half) in test [1] is below 100 nM. In the test on A549 cells, the EC50 (commonly the midpoint of the concentration-response curve) is below 100 nM.

Regarding `Cc1ccc(CNC(=O)c2nnc(CCCCn3ccc(NC(=O)Cc4ccccc4)cc3=O)s2)cn1` [Example 441, N-[(6-methylpyridin-3-yl)methyl]-5-{4-[2-oxo-4-(2-phenylacetamido)-1,2-dihydropyridin-1-yl]butyl}-1,3,4-thiadiazole-2-carboxamide], the IC50 in test [1] was below 100 nM. Also, the EC50 in the test with A549 cells is 500 to 5000 nM.

For `Cc1ccc(CNC(=O)c2nnc(CCCCn3ccc(NC(=O)Cc4cccc(OC(F)(F)F)c4)cc3=O)s2)cn1` [Example 442, N-[(6-methylpyridin-3-yl)methyl]-5-[4-(2-oxo-4-{2-[3-(trifluoromethoxy)phenyl]acetamido}-1,2-dihydropyridin-1-yl)butyl]-1,3,4-thiadiazole-2-carboxamide], in test [1], the half-inhibitory concentration (IC50) is below 100 nM. The same compound yielded an EC50 in the test with A549 cells below 100 nM.

As for `Cc1ccc(CNC(=O)c2nnc(CCCCn3ccc(NC(=O)CC4CCCCC4)cc3=O)s2)cn1` [Example 443, 5-{4-[4-(2-cyclohexylacetamido)-2-oxo-1,2-dihydropyridin-1-yl]butyl}-N-[(6-methylpyridin-3-yl)methyl]-1,3,4-thiadiazole-2-carboxamide], in test [1], the IC50 is below 100 nM. In the test with A549 cells, this compound gave an EC50 below 100 nM.

Take `O=C(Cc1ccccc1)Nc1ccn(CCCCc2nnc(C(=O)NCc3ccccn3)s2)c(=O)c1` [Example 445, 5-{4-[2-oxo-4-(2-phenylacetamido)-1,2-dihydropyridin-1-yl]butyl}-N-(pyridin-2-ylmethyl)-1,3,4-thiadiazole-2-carboxamide]: the IC50 in test [1] was 100 to 500 nM. For the same compound, the EC50 with A549 cells fell in the range of 500 to 5000 nM.

For `O=C(Cc1cccc(OC(F)(F)F)c1)Nc1ccn(CCCCc2nnc(C(=O)NCc3ccccn3)s2)c(=O)c1` [Example 446, 5-[4-(2-oxo-4-{2-[3-(trifluoromethoxy)phenyl]acetamido}-1,2-dihydropyridin-1-yl)butyl]-N-(pyridin-2-ylmethyl)-1,3,4-thiadiazole-2-carboxamide], the IC50 in test [1] is below 100 nM. In the test with A549 cells, this compound came in with an EC50 of 100 to 500 nM.

Consider `O=C(CC1CCCCC1)Nc1ccn(CCCCc2nnc(C(=O)NCc3ccccn3)s2)c(=O)c1` [Example 447, 5-{4-[4-(2-cyclohexylacetamido)-2-oxo-1,2-dihydropyridin-1-yl]butyl}-N-(pyridin-2-ylmethyl)-1,3,4-thiadiazole-2-carboxamide], for which, in test [1], the IC50 was below 100 nM. Moreover, in the test with A549 cells, the EC50 is below 100 nM.

With `COCCNC(=O)c1nnc(CCCCn2ccc(NC(=O)Cc3cccc(OC(F)(F)F)c3)cc2=O)s1` [Example 450, N-(2-methoxyethyl)-5-[4-(2-oxo-4-{2-[3-(trifluoro-methoxy)phenyl]acetamido}-1,2-dihydropyridin-1-yl)butyl]-1,3,4-thiadiazole-2-carboxamide], the IC50 in test [1] is 100 to 500 nM. Also, in the test with A549 cells, the EC50 was in the range of 500 to 5000 nM.

In the case of `COCCNC(=O)c1nnc(CCCCn2ccc(NC(=O)CC3CCCCC3)cc2=O)s1` [Example 451, 5-{4-[4-(2-cyclohexylacetamido)-2-oxo-1,2-dihydropyridin-1-yl]butyl)-N-(2-methoxyethyl)-1,3,4-thiadiazole-2-carboxamide], in test [1], the half-inhibitory concentration (IC50) is below 100 nM. Further, the half-maximal effective concentration (EC50) in the test with A549 cells lay within 100 to 500 nM.

For `O=C(Cc1ccccc1)Nc1ccn(CCCCc2nnc(C(=O)NCc3ncccc3F)s2)c(=O)c1` [Example 453, N-[(3-fluoropyridin-2-yl)methyl]-5-{4-[2-oxo-4-(2-phenylacetamido)-1,2-dihydropyridin-1-yl]butyl}-1,3,4-thiadiazole-2-carboxamide], the IC50 in test [1] was in the range of 100 to 500 nM. The compound further had an EC50 in the test on A549 cells of 500 to 5000 nM.

With `O=C(Cc1cccc(OC(F)(F)F)c1)Nc1ccn(CCCCc2nnc(C(=O)NCc3ncccc3F)s2)c(=O)c1` [Example 454, N-[(3-fluoropyridin-2-yl)methyl]-5-[4-(2-oxo-4-{2-[3-(trifluoromethoxy)phenyl]acetamido}-1,2-dihydropyridin-1-yl)butyl]-1,3,4-thiadiazole-2-carboxamide], in test [1], the IC50 is below 100 nM. For the same compound, in the test with A549 cells, the EC50 lay in the range of 100 to 500 nM.

For the compound `O=C(CC1CCCCC1)Nc1ccn(CCCCc2nnc(C(=O)NCc3ncccc3F)s2)c(=O)c1` [Example 455, 5-{4-[4-(2-cyclohexylacetamido)-2-oxo-1,2-dihydropyridin-1-yl]butyl}-N-[(3-fluoropyridin-2-yl)methyl]-1,3,4-thiadiazole-2-carboxamide], in test [1], the half-inhibitory concentration (IC50) is below 100 nM. Besides, in the test on A549 cells, the EC50 is below 100 nM.

Take `O=C(Cc1ccccn1)Nc1ccn(CCCCc2nnc(C(=O)NCc3cccc(OC(F)(F)F)c3)s2)c(=O)c1` [Example 456, 5-(4-{2-oxo-4-[2-(pyridin-2-yl)acetamido]-1,2-dihydropyridin-1-yl}butyl)-N-{[3-(trifluoromethoxy)phenyl]methyl}-1,3,4-thiadiazole-2-carboxamide]: the IC50 in test [1] was below 100 nM. Moreover, the 50% effective concentration (EC50) with A549 cells was 100 to 500 nM.

Turning to `O=C(Cc1ccccc1)Nc1ccn(CCCCc2nnc(C(=O)NCc3cc(OC(F)(F)F)ccc3F)s2)c(=O)c1` [Example 458, N-{[2-fluoro-5-(trifluoromethoxy)phenyl]methyl}-5-{4-[2-oxo-4-(2-phenylacetamido)-1,2-dihydropyridin-1-yl]butyl}-1,3,4-thiadiazole-2-carboxamide], the IC50 in test [1] was below 100 nM. In addition, the EC50 in the test with A549 cells is below 100 nM.

As for `O=C(Cc1cccc(OC(F)(F)F)c1)Nc1ccn(CCCCc2nnc(C(=O)NCc3cc(OC(F)(F)F)ccc3F)s2)c(=O)c1` [Example 459, N-{[2-fluoro-5-(trifluoromethoxy)phenyl]methyl}-5-[4-(2-oxo-4-{2-[3-(trifluoromethoxy)phenyl]acetamido}-1,2-dihydropyridin-1-yl)butyl]-1,3,4-thiadiazole-2-carboxamide], the IC50 in test [1] was below 100 nM. Also, the EC50 with A549 cells was below 100 nM.

Turning to `O=C(CC1CCCCC1)Nc1ccn(CCCCc2nnc(C(=O)NCc3cc(OC(F)(F)F)ccc3F)s2)c(=O)c1` [Example 460, 5-{4-[4-(2-cyclohexylacetamido)-2-oxo-1,2-dihydropyridin-1-yl]butyl}-N-{[2-fluoro-5-(trifluoromethoxy)phenyl]methyl}-1,3,4-thiadiazole-2-carboxamide], the IC50 in test [1] was below 100 nM. This compound also returned an EC50 in the test on A549 cells below 100 nM.

Turning to `O=C(Cc1ccccn1)Nc1ccn(CCCCc2nnc(C(=O)NCc3cc(OC(F)(F)F)ccc3F)s2)c(=O)c1` [Example 461, N-{[2-fluoro-5-(trifluoromethoxy)phenyl]methyl}-5-(4-{2-oxo-4-[2-(pyridin-2-yl)acetamido]-1,2-dihydropyridin-1-yl}butyl)-1,3,4-thiadiazole-2-carboxamide], the concentration for half-maximal inhibition (IC50) in test [1] was below 100 nM. Further, the EC50 with A549 cells was in the range of 500 to 5000 nM.

For `Cc1ccc(CNC(=O)c2nnc(CCCCn3ccc(NC(=O)CN4CCCCC4)c(F)c3=O)s2)cn1` [Example 462, 5-(4-{3-fluoro-2-oxo-4-[2-(piperidin-1-yl)acetamido]-1,2-dihydropyridin-1-yl}butyl)-N-[(6-methylpyridin-3-yl)methyl]-1,3,4-thiadiazole-2-carboxamide], the IC50 in test [1] was in the range of 100 to 500 nM. In the test with A549 cells, this compound showed an EC50 of 100 to 500 nM.

Take `Cc1ccc(CNC(=O)c2nnc(CCCCn3ccc(NC(=O)C(=O)N4CCCCC4)c(F)c3=O)s2)cn1` [Example 463, 5-(4-{3-fluoro-2-oxo-4-[2-oxo-2-(piperidin-1-yl)acetamido]-1,2-dihydropyridin-1-yl}butyl)-N-[(6-methylpyridin-3-yl)methyl]-1,3,4-thiadiazole-2-carboxamide]: the IC50 in test [1] was in the range of 100 to 500 nM. The EC50 in the test with A549 cells fell in the range of 100 to 500 nM.

With `Cc1ccc(CNC(=O)c2nnc(CCCCn3ccc(NC(=O)CC4CCC4)c(F)c3=O)s2)cn1` [Example 464, 5-(4-(4-(2-cyclobutylacetamido)-3-fluoro-2-oxopyridin-1(2H)-yl)butyl)-N-((6-methylpyridin-3-yl)methyl)-1,3,4-thiadiazole-2-carboxamide], in test [1], the IC50 is below 100 nM. This compound displayed an EC50 in the test with A549 cells below 100 nM.

Regarding `O=C(CC1CCC1)Nc1ccn(CCCCc2nnc(C(=O)NCc3cc(C(F)(F)F)ccn3)s2)c(=O)c1F` [Example 465, 5-{4-[4-(2-cyclobutylacetamido)-3-fluoro-2-oxo-1,2-dihydropyridin-1-yl]butyl}-N-{[4-(trifluoromethyl)pyridin-2-yl]methyl}-1,3,4-thiadiazole-2-carboxamide], the IC50 in test [1] is below 100 nM. In addition, in the test on A549 cells, the EC50 is below 100 nM.

On to `O=C(Nc1ccn(CCCCc2nnc(C(=O)NCc3cc(C(F)(F)F)ccn3)s2)c(=O)c1F)C(=O)N1CCCCC1` [Example 466, 5-(4-{3-fluoro-2-oxo-4-[2-oxo-2-(piperidin-1-yl)acetamido]-1,2-dihydropyridin-1-yl)butyl)-N-{[4-(trifluoromethyl)pyridin-2-yl]methyl}-1,3,4-thiadiazole-2-carboxamide], for which the IC50 in test [1] is below 100 nM. Further, the EC50 in the test with A549 cells fell in the range of 100 to 500 nM.

The values are drawn from patent publication US20160002204A1 (Board of Regents, The University of Texas System, priority 2014, published 2016).
